Assay [1] concerns the target T1, h-cGAS (Homo sapiens, UniProt Q8N884).
T1 construct: The final concentration of full-length h-cGAS, dsDNA, ATP, and GTP were 100 nM
Briefly: cGAS biochemical assay, RapidFire 365 mass spectrometry (RF-MS). The conditions noted are these: full-length h-cGAS 100 nM, dsDNA 25 nM, ATP and GTP 100 μM, 7 h at RT.

The test system of assay [2] is THP1-Dual cells. Briefly: Cell-based Lucia luciferase assay in THP1-Dual cells (dsDNA transfection). The note with it: Homo sapiens, 1 h pre-incubation, 100-bp dsDNA transfection for 24 h.

For orientation: IC50 means the concentration that gives 50% inhibition. A higher IC50 goes with weaker potency in that assay.

T1 sequence (Q8N884 whole entry): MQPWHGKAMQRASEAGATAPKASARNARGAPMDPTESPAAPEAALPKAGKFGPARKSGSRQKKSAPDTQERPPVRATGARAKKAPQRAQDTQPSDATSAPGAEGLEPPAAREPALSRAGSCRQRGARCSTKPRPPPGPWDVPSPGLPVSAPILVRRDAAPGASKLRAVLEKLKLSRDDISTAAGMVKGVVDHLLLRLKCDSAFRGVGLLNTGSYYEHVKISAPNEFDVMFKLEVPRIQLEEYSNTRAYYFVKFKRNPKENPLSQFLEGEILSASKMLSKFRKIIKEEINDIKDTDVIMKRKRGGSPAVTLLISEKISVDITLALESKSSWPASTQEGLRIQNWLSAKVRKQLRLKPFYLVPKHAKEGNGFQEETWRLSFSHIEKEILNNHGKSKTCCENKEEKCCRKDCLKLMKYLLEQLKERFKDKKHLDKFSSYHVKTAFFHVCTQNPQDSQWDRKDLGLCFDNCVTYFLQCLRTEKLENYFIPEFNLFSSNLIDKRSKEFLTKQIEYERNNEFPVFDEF

For the compound `C[C@H]1CN(C(=O)CO)Cc2c1[nH]c1c(F)c(Cl)cc(-c3ccn(C)n3)c21` [TDI-009001], the half-inhibitory concentration (IC50) was 32.7 nM in assay [1] and 3180 nM in assay [2].
The like results for `O=C(CO)N1CCc2c(c3ccc(Br)c(F)c3n2CC(F)(F)F)C1` [TDI-008130] were, in that order, 1120 nM and 25800 nM.
Take `CCn1ccc(-c2cc(Cl)c(Cl)c3[nH]c4c(c23)CN(C(=O)CO)CC4)n1` [TDI-008371]: the IC50 was determined as 23.2 nM in assay [1] and 6520 nM in assay [2].
Consider `O=C(CO)N1CCc2[nH]c3c(Cl)c(Cl)cc(-c4cncnc4)c3c2C1` [TDI-008074], for which the IC50 in assay [1] is 19.4 nM; in assay [2] it was 6850 nM.
The like results for `O=C(CO)N1CCc2[nH]c3c(Cl)c(Cl)cc(-c4cccnc4)c3c2C1` [TDI-008073] were, in that order, 20.4 nM and 6230 nM.
For `Cn1ccc(-c2cc(Br)c(F)c3[nH]c4c(c23)CN(C(=O)CO)CC4)n1` [TDI-008783], the IC50 in assay [1] came out at 17.2 nM; in assay [2], 3410 nM.
In the case of `N#CC1CCN(c2cc(Cl)c(F)c3[nH]c4c(c23)CN(C(=O)CO)CC4)C1` (centres unmarked) [TDI-008865], the IC50 in assay [1] was 1580 nM; in assay [2], greater than 10000 nM.
For the compound `Cn1ccc(-c2cc(Cl)c(OCC(F)F)c3[nH]c4c(c23)CN(C(=O)CO)CC4)n1` [TDI-008796], the IC50 was 984 nM in assay [1] and greater than 40000 nM in assay [2].
Taken in the same sequence, the figures for `O=C(CO)N1CCc2[nH]c3c(Cl)c(Cl)cc(-c4ccco4)c3c2C1` [TDI-008070] were 22.8 nM and 4950 nM.
Regarding `O=C(CO)N1CCc2[nH]c3c(Cl)c(Cl)cc(-c4ccc5nonc5c4)c3c2C1` [TDI-008117], the half-maximal inhibitory concentration (IC50) in assay [1] was 18.2 nM; in assay [2], 6190 nM.
Regarding `Cc1noc(-c2cc(Cl)c(Cl)c3[nH]c4c(c23)CN(C(=O)CO)CC4)n1` [TDI-008768], the figures for the IC50 in assay [1] and in assay [2] were 22.6 nM and 5800 nM, respectively.
For the compound `O=C(CO)N1CCc2[nH]c3c(F)c(Cl)cc(N4CCCC4)c3c2C1` [TDI-008860], the IC50 is 350 nM in assay [1] and greater than 10000 nM in assay [2].
The like results for `Cn1ncc(-c2cc(Cl)c(Cl)c3[nH]c4c(c23)CN(C(=O)CO)CC4)n1` [TDI-009007] were, in that order, 23.3 nM and 1150 nM.
With `O=C(CO)N1CCc2c(c3ccc(Br)c(F)c3n2C(F)F)C1` [TDI-008179], the values for the IC50 in assay [1] and in assay [2] were 506 nM and 34000 nM, respectively.
In the case of `C[C@@H]1CN(C(=O)CO)Cc2c1[nH]c1c(F)c(Cl)cc(-c3ccn(C)n3)c21` [TDI-009000], the IC50 came to 24.5 nM in assay [1] and 2890 nM in assay [2].
On to `O=C(CO)N1CCc2[nH]c3c(F)c(Cl)cc(-n4cccn4)c3c2C1` [TDI-009013, 1-(7-chloro-6-fluoro-9-pyrazol-1-yl-1,3,4,5-tetrahydropyrido [4,3-b]indol-2-yl)-2-hydroxy-ethanone], for which the results for the IC50 in assay [1] and in assay [2] were 583 nM and greater than 40000 nM, respectively.
The like results for `Cn1ccc(-c2cc(Cl)c(C#N)c3[nH]c4c(c23)CN(C(=O)CO)CC4)n1` [TDI-009208] were, in that order, 39.2 nM and 4400 nM.
As to `Cn1c2c(c3ccc(Cl)c(F)c31)CN(C(=O)CO)CC2` [TDI-006570], the IC50 in assay [1] was 138 nM; in assay [2] it was greater than 40000 nM.
In the case of `COc1cc(-c2cc(Cl)c(Cl)c3[nH]c4c(c23)CN(C(=O)CO)CC4)ccn1` [TDI-008106], the IC50 in assay [1] amounted to 49.3 nM.
Turning to `N#Cc1ccc2c3c([nH]c2c1C#N)CCN(C(=O)CO)C3` [TDI-006932], the IC50 in assay [1] was greater than 25000 nM.
The compound `N#Cc1cc(Cl)c(Cl)c2[nH]c3c(c12)CN(C(=O)CO)CC3` [TDI-007586] gave an IC50 in assay [1] of 352 nM.
`Cc1nc(-c2cc(Cl)c(Cl)c3[nH]c4c(c23)CN(C(=O)CO)CC4)no1` [TDI-008937]: the IC50 in assay [1] was 77.6 nM; in assay [2], 16100 nM.
In turn, `COc1ccnc(-c2cc(Cl)c(Cl)c3[nH]c4c(c23)CN(C(=O)CO)CC4)c1` [TDI-008104] gave an IC50 in assay [1] of 95.2 nM.
`CCOc1c(Cl)cc(-c2ccn(C)n2)c2c3c([nH]c12)CCN(C(=O)CO)C3` [TDI-008797]: in assay [1], the IC50 is 351 nM.
Turning to `Cc1nc(C)c(-c2cc(Cl)c(Cl)c3[nH]c4c(c23)CN(C(=O)CO)CC4)s1` [TDI-008113], inhibition in assay [1] was half-maximal at 962 nM (IC50).
The compound `O=C(CO)N1CCc2[nH]c3c(Cl)c(Cl)cc(-c4ccoc4)c3c2C1` [TDI-008069] yielded an IC50 in assay [1] of 84.8 nM.
As to `O=C(CO)N1CCc2[nH]c3c(F)c(Br)ccc3c2C1` [TDI-006529, 1-(7-Bromo-6-fluoro-1,3,4,5-tetrahydro-2H-pyrido[4,3-b]indol-2-yl)-2-hydroxyethan-1-one], in assay [1], it took 39 nM to reach half-maximal inhibition (IC50).
In the case of `O=C(CO)N1CCc2c(c3c(-c4cn[nH]c4)cc(Cl)c(F)c3n2C(F)F)C1` [TDI-008136], the IC50 in assay [1] was determined as 416 nM; in assay [2] it was 15900 nM.
In assay [1], `Cc1ncc(-c2cc(Cl)c(Cl)c3[nH]c4c(c23)CN(C(=O)CO)CC4)cn1` [TDI-008088] had an IC50 of 56.9 nM.
On to `O=C(CO)N1CCc2[nH]c3c(F)c(Cl)c(N4CCC4)cc3c2C1` [TDI-007560], for which, in assay [1], half-maximal inhibition (IC50) was put at 6740 nM.
Take `O=C(CO)N1CCc2[nH]c3c(Cl)c(Cl)cc(CN4CCCCC4)c3c2C1` [TDI-008441]: the IC50 in assay [1] is 5220 nM.
`COc1ncc(-c2cc(Cl)c(Cl)c3[nH]c4c(c23)CN(C(=O)CO)CC4)cn1` [TDI-008112] displayed an IC50 in assay [1] of 201 nM.
As to `O=C(CO)N1CCc2[nH]c3c(Cl)c(Cl)cc(-c4ccc(S(=O)(=O)NCCCO)cc4)c3c2C1` [TDI-008464], it took 3910 nM to reach half-maximal inhibition in assay [1] (IC50).
As to `COc1cncc(-c2cc(Cl)c(Cl)c3[nH]c4c(c23)CN(C(=O)CO)CC4)c1` [TDI-008107], inhibition in assay [1] was half-maximal at 52.4 nM (IC50).
On the same count and under the same terms, to `C[C@@H]1CCN(c2cc(Cl)c(F)c3[nH]c4c(c23)CN(C(=O)CO)CC4)C1` [TDI-008862] belongs 478 nM; to `Cc1ccc2c3c([nH]c2c1Cl)CCN(C(=O)CO)C3` [TDI-006358], 597 nM.
`C=Cc1ccc2c3c([nH]c2c1F)CCN(C(=O)CO)C3` [TDI-006923]: the IC50 in assay [1] amounted to 19300 nM.
The same measure, in the same setting: to `Cc1noc(C)c1-c1cc(Cl)c(Cl)c2[nH]c3c(c12)CN(C(=O)CO)CC3` [TDI-008096] belongs 5950 nM.
As to `COc1cc2c3c([nH]c2c(Cl)c1Cl)CCN(C(=O)CO)C3` [TDI-006528], in assay [1], the IC50 was 31 nM.
Compound `CCOCC(=O)N1CCc2[nH]c3c(Cl)c(Cl)ccc3c2C1` [TDI-005716] displayed an IC50 in assay [1] of 1510 nM.
As for `CN(C)Cc1cc(Cl)c(Cl)c2[nH]c3c(c12)CN(C(=O)CO)CC3` [TDI-008437], the IC50 in assay [1] was 350 nM.
In turn, `COCC(=O)N1CCc2c(c3c(-c4cn[nH]c4)cc(Cl)c(Cl)c3n2C)C1` [TDI-008026] showed an IC50 in assay [1] of 203 nM.
`O=C(CO)N1CCc2[nH]c3c(F)c(Cl)c(Br)cc3c2C1` [TDI-007362] yielded an IC50 in assay [1] of 591 nM.
Take `O=C(CO)N1CCc2[nH]c3c(F)c(Cl)cc(N4CCC(O)C4)c3c2C1` (centres unmarked) [TDI-008864]: the IC50 was 455 nM in assay [1] and greater than 10000 nM in assay [2].
As for `Cc1c(-c2cc(Cl)c(Cl)c3[nH]c4c(c23)CN(C(=O)CO)CC4)cnn1C` [TDI-008094], the IC50 in assay [1] was 371 nM.
For the compound `CC1CCN(c2cc(Cl)c(F)c3[nH]c4c(c23)CN(C(=O)CO)CC4)C1` (centres unmarked) [TDI-008863], the IC50 in assay [1] was 147 nM; in assay [2], greater than 10000 nM.
The compound `Cn1cc(-c2cc(Cl)c(Cl)c3[nH]c4c(c23)CN(C(=O)CO)CC4)ccc1=O` [TDI-008108] returned an IC50 in assay [1] of 552 nM.
`O=C(CO)N1CCc2[nH]c3c(Cl)c(Cl)cc(-c4ccccc4O)c3c2C1` [TDI-008084] gave an IC50 in assay [1] of 258 nM.
The same measure, in the same setting: to `Cn1c2c(c3ccc(Br)c(F)c31)CN(C(=O)CO)CC2` [TDI-008061] belongs 131 nM.
In the case of `Cn1ncc(-c2cc(Cl)c(F)c3[nH]c4c(c23)CN(C(=O)CO)CC4)n1` [TDI-009186], the IC50 in assay [1] worked out at 17.6 nM; in assay [2] it was 720 nM.
The like results for `O=C(CO)N1CCc2[nH]c3c(F)c(Cl)cc(N4CCC5CC54)c3c2C1` (centres unmarked) [TDI-008861] were, in that order, 480 nM and greater than 10000 nM.
Turning to `COCCn1c2c(c3c(-c4ccn(C)n4)cc(Cl)c(F)c31)CN(C(=O)CO)CC2` [TDI-008292], the IC50 in assay [1] is 402 nM; in assay [2], greater than 40000 nM.
With `O=C(CO)N1CCc2[nH]c3c(Cl)c(Cl)cc(-c4cnn5ccccc45)c3c2C1` [TDI-008116], the IC50 was 25.2 nM in assay [1] and 6430 nM in assay [2].
As for `O=C(CO)N1CCc2[nH]c3c(F)c(Cl)cc(-c4cn[nH]c4)c3c2C1` [TDI-008185], the IC50 in assay [1] is 32.2 nM; in assay [2] it was 9900 nM.
In assay [1], `COc1cnccc1-c1cc(Cl)c(Cl)c2[nH]c3c(c12)CN(C(=O)CO)CC3` [TDI-008109] gave an IC50 of 2330 nM.
For `O=C(CO)N1CCc2[nH]c3c(F)c(Cl)cc(N4CCC(F)(F)C4)c3c2C1` [TDI-008866], the figures for the IC50 in assay [1] and in assay [2] were 452 nM and greater than 10000 nM, respectively.
`O=C(CO)N1CCc2[nH]c3c(Cl)c(Cl)cc(C4=CCCCO4)c3c2C1` [TDI-008078] returned an IC50 in assay [1] of 31.8 nM.
In assay [1], `COCC(=O)N1CCc2[nH]c3c(C#N)c(Cl)ccc3c2C1` [TDI-006182] returned an IC50 of 570 nM.
In assay [1], `Cn1c2c(c3ccc(Cl)c(Cl)c31)CN(C(=O)CO)CC2` [TDI-006366] returned an IC50 of 201 nM.
`O=C(CO)N1CCc2[nH]c3c(F)c(Cl)ccc3c2C1` [TDI-006340] showed an IC50 in assay [1] of 129 nM.
The compound `C[C@H]1CN(C(=O)CO)Cc2c1[nH]c1c(Cl)c(Cl)ccc21` [TDI-007575] returned an IC50 in assay [1] of 174 nM.
Take `O=C(CO)N1CCc2[nH]c3c(F)c(Cl)cc(N4CCCC4=O)c3c2C1` [TDI-009072]: the IC50 in assay [1] was 18600 nM; in assay [2], greater than 40000 nM.
In turn, `O=C(C1CCCO1)N1CCc2[nH]c3c(Cl)c(Cl)ccc3c2C1` (centres unmarked) [TDI-005745] displayed an IC50 in assay [1] of 3080 nM.
Take `COCC(=O)N1CCc2[nH]c3c(Cl)cccc3c2C1` [TDI-005323]: the midpoint of inhibition in assay [1], the IC50, lay at 5860 nM.
`COCC(=O)N1CCc2[nH]c3cc(Cl)ccc3c2C1` [TDI-005324] registered a half-inhibitory concentration (IC50) in assay [1] of 4020 nM.
Turning to `CNc1ncc(-c2cc(Cl)c(Cl)c3[nH]c4c(c23)CN(C(=O)CO)CC4)cn1` [TDI-008111], the IC50 in assay [1] amounted to 268 nM.

Values taken from patent US11414422B2, “Substituted pyrido[4,3-b]indoles and azepino[4,5-b]indoles as inhibitors of cGAS” (The Rockefeller University, priority 2018, dated 2022).
